From patent US20260028365A1 (BIOGEN MA INC., priority 2022, published 2026) come the findings set out here.

By IC50 is commonly meant the point on the concentration scale where inhibition reaches its midpoint. A low value points to higher potency.

One assay addresses Tyk2 (Homo sapiens (Human), UniProt P29597). The experiment in a line: pSTAT4 Cell Assay (MSD, NK92 cells). The format is cell-based.
A further assay deals with JH2 domain of human Tyk2 (Homo sapiens (Human), UniProt P29597). The experiment in a line: JH2 Biochemical Assay (TR-FRET probe displacement). The format is binding. (In general: Time-resolved FRET reads energy transfer from a long-lived donor to a nearby acceptor.)
The mark [1] stands for this setting: TR-FRET probe displacement, JH2 domain.
The mark [2] stands for this setting: JH2 domain of human Tyk2, TR-FRET probe displacement.
Setting [3] is: TR-FRET probe displacement, JH2 domain of human Tyk2.

Read-outs that look alike come from different tables or passages of the source. Some results are limits rather than exact numbers.

Sequence of JH2 domain of human Tyk2 (P29597 575-876): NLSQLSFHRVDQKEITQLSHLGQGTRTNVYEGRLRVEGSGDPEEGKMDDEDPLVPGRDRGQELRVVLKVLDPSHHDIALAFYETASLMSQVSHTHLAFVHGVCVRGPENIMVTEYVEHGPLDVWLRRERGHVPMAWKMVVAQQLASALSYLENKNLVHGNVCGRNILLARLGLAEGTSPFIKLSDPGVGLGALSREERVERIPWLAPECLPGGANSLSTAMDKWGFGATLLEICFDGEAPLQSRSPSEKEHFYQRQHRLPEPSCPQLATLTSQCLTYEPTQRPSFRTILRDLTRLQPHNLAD
Sequence of Tyk2 (P29597 whole entry, the tested form may be a part): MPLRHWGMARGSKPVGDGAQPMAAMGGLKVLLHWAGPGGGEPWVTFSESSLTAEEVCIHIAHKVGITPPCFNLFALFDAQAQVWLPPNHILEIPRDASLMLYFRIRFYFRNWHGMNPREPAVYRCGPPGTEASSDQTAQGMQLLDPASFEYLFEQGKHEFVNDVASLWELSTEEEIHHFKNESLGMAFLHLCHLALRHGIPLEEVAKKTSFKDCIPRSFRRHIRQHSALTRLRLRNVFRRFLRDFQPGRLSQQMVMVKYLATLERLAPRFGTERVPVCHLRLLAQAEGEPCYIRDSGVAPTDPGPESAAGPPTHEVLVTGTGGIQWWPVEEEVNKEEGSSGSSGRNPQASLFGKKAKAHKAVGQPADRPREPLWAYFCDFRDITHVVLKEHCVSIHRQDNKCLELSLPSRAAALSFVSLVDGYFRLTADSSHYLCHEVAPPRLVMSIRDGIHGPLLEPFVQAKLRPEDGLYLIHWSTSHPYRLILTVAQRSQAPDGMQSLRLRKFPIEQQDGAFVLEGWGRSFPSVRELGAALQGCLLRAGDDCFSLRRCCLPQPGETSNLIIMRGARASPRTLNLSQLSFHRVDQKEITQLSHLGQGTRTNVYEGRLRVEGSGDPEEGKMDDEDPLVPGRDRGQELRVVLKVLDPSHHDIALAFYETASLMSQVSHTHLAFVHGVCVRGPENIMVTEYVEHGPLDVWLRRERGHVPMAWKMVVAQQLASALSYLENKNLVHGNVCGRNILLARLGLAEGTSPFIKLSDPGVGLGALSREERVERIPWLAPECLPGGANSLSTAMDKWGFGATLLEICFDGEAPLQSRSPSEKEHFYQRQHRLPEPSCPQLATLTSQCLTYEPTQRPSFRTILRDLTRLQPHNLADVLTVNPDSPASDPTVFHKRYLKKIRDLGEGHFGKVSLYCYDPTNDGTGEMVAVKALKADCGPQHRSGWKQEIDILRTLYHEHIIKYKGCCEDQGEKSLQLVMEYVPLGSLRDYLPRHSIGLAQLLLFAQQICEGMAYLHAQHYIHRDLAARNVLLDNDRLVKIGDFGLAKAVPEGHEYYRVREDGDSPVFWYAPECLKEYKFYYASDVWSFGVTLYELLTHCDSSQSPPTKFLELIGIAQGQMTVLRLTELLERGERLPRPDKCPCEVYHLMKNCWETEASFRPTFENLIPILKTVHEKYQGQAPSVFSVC

Consider `CC(=O)Nc1cc(Nc2ccnc(C(C)(F)F)n2)c(-c2cnc(N3CCOCC3)cn2)cn1` [Example 844, N-(4-((2-(1,1-difluoroethyl)pyrimidin-4-yl)amino)-5-(5-morpholinopyrazin-2-yl)pyridin-2-yl)acetamide], for which the values for the IC50 against Tyk2 and at JH2 domain of human Tyk2 (setting [1]) were 10 to 100 nM and at most 10 nM, respectively.
As for `CC(=O)Nc1cc(Nc2ccnc(C(C)(F)F)n2)c(-c2cnc(N3C[C@H]4C[C@@H](C3)O4)cn2)cn1` [Example 887, N-(5-(5-((1R,5S)-6-oxa-3-azabicyclo[3.1.1]heptan-3-yl)pyrazin-2-yl)-4-((2-(1,1-difluoroethyl)pyrimidin-4-yl)amino)pyridin-2-yl)acetamide], the values for the IC50 against Tyk2 and on JH2 domain of human Tyk2 (setting [1]) were 10 to 100 nM and at most 10 nM, respectively.
Regarding `COc1cnc(NC(C)=O)cc1Nc1cc(-c2cnn(C3CC3)c2)nc(C(C)(F)F)n1` [Example 376, N-(4-((6-(1-cyclopropyl-1H-pyrazol-4-yl)-2-(1,1-difluoroethyl)pyrimidin-4-yl)amino)-5-methoxypyridin-2-yl)acetamide], the IC50 against Tyk2 (MSD) and on JH2 domain of human Tyk2 (setting [2]) was 10 to 100 nM each time.
As for `CC(=O)Nc1cc(Nc2cc(C)nc(C(C)(F)F)n2)c(-c2nc3n(n2)CCOC3)cn1` [Example 760, N-(4-((2-(1,1-difluoroethyl)-6-methylpyrimidin-4-yl)amino)-5-(5,6-dihydrO8H-[1,2,4]triazolo[5,1-c][1,4]oxazin-2-yl)pyridin-2-yl)acetamide], the values for the IC50 against Tyk2 and on JH2 domain of human Tyk2 (setting [1]) were 10 to 100 nM and at most 10 nM, respectively.
`COCCOc1nc(C)cc(Nc2cc(NC(C)=O)ncc2-c2ccn(C)n2)n1` [Example 559, N-(4-((2-(2-methoxyethoxy)-6-methylpyrimidin-4-yl)amino)-5-(1-methyl-1H-pyrazol-3-yl)pyridin-2-yl)acetamide]: the IC50 is 10 to 100 nM on Tyk2 (MSD) and at most 10 nM at JH2 domain of human Tyk2 (setting [2]).
For the compound `CCc1cc(Nc2cc(NC(=O)NC)ncc2-c2cnccn2)nc(C(C)(F)F)n1` [Example 919, 1-(4-((2-(1,1-difluoroethyl)-6-ethylpyrimidin-4-yl)amino)-5-(pyrazin-2-yl)pyridin-2-yl)-3-methylurea], the IC50 against Tyk2 is 10 to 100 nM; at JH2 domain of human Tyk2 (setting [1]), at most 10 nM.
With `CC(=O)Nc1cc(Nc2cc(C)nc(C(C)(F)F)n2)c(-c2cnc(CN3CCCC3)cn2)cn1` [Example 791, N-(4-((2-(1,1-difluoroethyl)-6-methylpyrimidin-4-yl)amino)-5-(5-(pyrrolidin-1-ylmethyl)pyrazin-2-yl)pyridin-2-yl)acetamide], the IC50 against Tyk2 and at JH2 domain of human Tyk2 (setting [1]) was at most 10 nM throughout.
With `COCCn1ccc(-c2cnc(NC(C)=O)cc2Nc2cc(C)nc(C(C)(F)F)n2)n1` [Example 257, N-(4-((2-(1,1-difluoroethyl)-6-methylpyrimidin-4-yl)amino)-5-(1-(2-methoxyethyl)-1H-pyrazol-3-yl)pyridin-2-yl)acetamide], the IC50 against Tyk2 (MSD) and at JH2 domain of human Tyk2 (setting [3]) was at most 10 nM in each case.
On to `COC1(COc2cnc(NC(C)=O)cc2Nc2cc(C)nc(C(C)(F)F)n2)CCOCC1` [Example 337, N-(4-((2-(1,1-difluoroethyl)-6-methylpyrimidin-4-yl)amino)-5-((4-methoxytetrahydro-2H-pyran-4-yl)methoxy)pyridin-2-yl)acetamide], for which the figures for the half-inhibitory concentration (IC50) on Tyk2 (MSD) and at JH2 domain of human Tyk2 (setting [3]) were 10 to 100 nM and at most 10 nM, respectively.
The corresponding values for `COc1nc(C)cc(-c2cnc(NC(C)=O)cc2Nc2ccnc(C(C)(F)F)n2)n1` [Example 164, N-(4-((2-(1,1-difluoroethyl)pyrimidin-4-yl)amino)-5-(2-methoxy-6-methylpyrimidin-4-yl)pyridin-2-yl)acetamide] are 10 to 100 nM and at most 10 nM.
As for `COC(=O)Nc1cc(Nc2cc(OC3CC3)nc(C(C)(F)F)n2)c(OCCN(C)C)cn1` [Example 447, methyl (4-((6-cyclopropoxy-2-(1,1-difluoroethyl)pyrimidin-4-yl)amino)-5-(2-(dimethylamino)ethoxy)pyridin-2-yl)carbamate], the results for the IC50 at Tyk2 (MSD) and on JH2 domain of human Tyk2 (setting [2]) were 10 to 100 nM and at most 10 nM, respectively.
Turning to `CC(=O)Nc1cc(Nc2cc(C)nc(C(C)(F)F)n2)c(-c2cnc(CN(C)C)cn2)cn1` [Example 807, N-(4-((2-(1,1-difluoroethyl)-6-methylpyrimidin-4-yl)amino)-5-(5-((dimethylamino)methyl)pyrazin-2-yl)pyridin-2-yl)acetamide], the IC50 on Tyk2 and on JH2 domain of human Tyk2 (setting [1]) was at most 10 nM in each case.
Take `CC(=O)Nc1cc(Nc2cc(C)nc(C(C)(F)F)n2)c(OCc2noc(C)n2)cn1` [Example 498, N-(4-((2-(1,1-difluoroethyl)-6-methylpyrimidin-4-yl)amino)-5-((5-methyl-1,2,4-oxadiazol-3-yl)methoxy)pyridin-2-yl)acetamide]: the IC50 is 100 to 1000 nM against Tyk2 (MSD) and at most 10 nM on JH2 domain of human Tyk2 (setting [2]).
On to `CC(=O)Nc1cc(Nc2cc(C)nc(C(C)(F)F)n2)c(OCC2CC(=O)N(C)C2)cn1` (centres unmarked) [Example 511, N-(4-((2-(1,1-difluoroethyl)-6-methylpyrimidin-4-yl)amino)-5-((1-methyl-5-oxopyrrolidin-3-yl)methoxy)pyridin-2-yl)acetamide], for which the IC50 is 100 to 1000 nM against Tyk2 (MSD) and 10 to 100 nM on JH2 domain of human Tyk2 (setting [2]).
With `CC(=O)Nc1cc(Nc2cc(C(C)C)nc(C(C)(F)F)n2)c(OCc2ccccn2)cn1` [Example 365, N-(4-((2-(1,1-difluoroethyl)-6-isopropylpyrimidin-4-yl)amino)-5-(pyridin-2-ylmethoxy)pyridin-2-yl)acetamide], the IC50 on Tyk2 (MSD) and on JH2 domain of human Tyk2 (setting [3]) was at most 10 nM in each case.
With `CC(=O)Nc1cc(Nc2cc(C)nc(C(C)(F)F)n2)c(-c2cc(C#N)cnn2)cn1` [Example 286, N-(5-(5-cyanopyridazin-3-yl)-4-((2-(1,1-difluoroethyl)-6-methylpyrimidin-4-yl)amino)pyridin-2-yl)acetamide], the half-maximal inhibitory concentration (IC50) is 100 to 1000 nM against Tyk2 (MSD) and at most 10 nM at JH2 domain of human Tyk2 (setting [3]).
In the case of `CCOc1cnc(NC(C)=O)cc1Nc1cc(OC2CC3(COC3)C2)nc(C(C)(F)F)n1` [Example 297, N-(4-((6-((2-oxaspiro[3.3]heptan-6-yl)oxy)-2-(1,1-difluoroethyl)pyrimidin-4-yl)amino)-5-ethoxypyridin-2-yl)acetamide], the IC50 against Tyk2 (MSD) and at JH2 domain of human Tyk2 (setting [3]) was at most 10 nM each time.
For `CCc1cc(Nc2cc(NC(C)=O)ncc2-c2ncn(C)n2)nc(C(C)(F)F)n1` [Example 166, N-(4-((2-(1,1-difluoroethyl)-6-ethylpyrimidin-4-yl)amino)-5-(1-methyl-1H-1,2,4-triazol-3-yl)pyridin-2-yl)acetamide], the IC50 against Tyk2 (MSD) was 10 to 100 nM; at JH2 domain of human Tyk2 (setting [3]) it was at most 10 nM.
The corresponding values for `CC(=O)Nc1cc(Nc2cc(C)nc(C(C)(F)F)n2)c(OCc2cnc(C3CC3)o2)cn1` [Example 344, N-(5-((2-cyclopropyloxazol-5-yl)methoxy)-4-((2-(1,1-difluoroethyl)-6-methylpyrimidin-4-yl)amino)pyridin-2-yl)acetamide] are 10 to 100 nM and at most 10 nM.
For the compound `CC(=O)Nc1cc(Nc2cc(C)nc(C(C)(F)F)n2)c(OCc2ncccc2C)cn1` [Example 471, N-(4-((2-(1,1-difluoroethyl)-6-methylpyrimidin-4-yl)amino)-5-((3-methylpyridin-2-yl)methoxy)pyridin-2-yl)acetamide], the IC50 lay in the range of 100 to 1000 nM against Tyk2 (MSD) and 10 to 100 nM on JH2 domain of human Tyk2 (setting [2]).
`CCOc1cnc(NC(C)=O)cc1Nc1cc(OC2CC(C#N)C2)nc(C(C)(F)F)n1` (centres unmarked) [Example 463, N-(4-((6-(3-cyanocyclobutoxy)-2-(1,1-difluoroethyl)pyrimidin-4-yl)amino)-5-ethoxypyridin-2-yl)acetamide]: the IC50 against Tyk2 (MSD) and at JH2 domain of human Tyk2 (setting [2]) was at most 10 nM each time.
On to `CC(=O)Nc1cc(Nc2cc(C)nc(C(C)(F)F)n2)c(OCCC(C)F)cn1` (centres unmarked) [Example 444, N-(4-((2-(1,1-difluoroethyl)-6-methylpyrimidin-4-yl)amino)-5-(3-fluorobutoxy)pyridin-2-yl)acetamide], for which the IC50 against Tyk2 (MSD) is 10 to 100 nM; on JH2 domain of human Tyk2 (setting [2]), at most 10 nM.
For `CC(=O)Nc1cc(Nc2cc(C(C)C)nc(C(C)(F)F)n2)c(-c2ncc(F)cn2)cn1` [Example 184, N-(4-((2-(1,1-difluoroethyl)-6-isopropylpyrimidin-4-yl)amino)-5-(5-fluoropyrimidin-2-yl)pyridin-2-yl)acetamide], the IC50 against Tyk2 (MSD) is 10 to 100 nM; at JH2 domain of human Tyk2 (setting [3]), at most 10 nM.
On the same counts, the results for `CC(=O)Nc1cc(Nc2cc(C)nc(C(C)(F)F)n2)c(OCc2cnn(C3CCC3)c2)cn1` [Example 354, N-(5-((1-cyclobutyl-1H-pyrazol-4-yl)methoxy)-4-((2-(1,1-difluoroethyl)-6-methylpyrimidin-4-yl)amino)pyridin-2-yl)acetamide] are 100 to 1000 nM and at most 10 nM.
For the compound `CCOc1cnc(NC(C)=O)cc1Nc1ccnc(C(C)(C)F)n1` [Example 31, N-(5-ethoxy-4-((2-(2-fluoropropan-2-yl)pyrimidin-4-yl)amino)pyridin-2-yl)acetamide], the IC50 is 10 to 100 nM on Tyk2 (MSD) and at most 10 nM on JH2 domain of human Tyk2 (setting [3]).
`CC(=O)Nc1cc(Nc2cccc(C(C)(F)F)n2)c(-c2ncc(F)cn2)cn1` [Example 186, N-(4-((6-(1,1-difluoroethyl)pyridin-2-yl)amino)-5-(5-fluoropyrimidin-2-yl)pyridin-2-yl)acetamide]: the results for the IC50 against Tyk2 (MSD) and at JH2 domain of human Tyk2 (setting [3]) were 10 to 100 nM and at most 10 nM, respectively.
On the same counts, the results for `CC(=O)Nc1cc(Nc2cncc(C(C)(C)F)n2)c(-c2ncc(F)cn2)cn1` [Example 189, N-(4-((6-(2-fluoropropan-2-yl)pyrazin-2-yl)amino)-5-(5-fluoropyrimidin-2-yl)pyridin-2-yl)acetamide] are 10 to 100 nM and 10 to 100 nM.
With `CCOc1cnc(NC(C)=O)cc1Nc1cc(-c2cnn(CC(C)C)c2)nc(C(C)(F)F)n1` [Example 371, N-(4-((2-(1,1-difluoroethyl)-6-(1-isobutyl-1H-pyrazol-4-yl)pyrimidin-4-yl)amino)-5-ethoxypyridin-2-yl)acetamide], the IC50 at Tyk2 (MSD) and on JH2 domain of human Tyk2 (setting [2]) was at most 10 nM each time.
